What all share (assay): NCI-60 cell line screen, 48 h
For assay [1], the system named is A498 renal.
Assay [2] concerns KM12 colon.
Assay [3] relates to NCI-H226 lung.
Assay [4] deals with NCI-H23 lung.
The subject of assay [5] is SNB-75 CNS.
Assay [6] relates to T-47D breast.
In assay [7] the test system is IGROV1 ovarian.
Assay [8] has as its system SK-MEL-5 melanoma.
The test system of assay [9] is SN12C renal.
For assay [10], the system named is NCI/ADR-RES ovarian.

The values that follow come from PubChem BioAssay (NCI).

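96-well plates; 48 h exposure; 5 concentrations. Endpoints by linear interpolation between flanking doses. Not reached: highest tested concentration assigned. Here, GI50 denotes the concentration required for 50% inhibition of growth. TGI denotes the concentration required for complete inhibition of growth.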 A value given as a limit tells only on which side of the number the result lay.

Regarding `CC1CN=C(Nc2cccc(C(F)(F)F)c2)S1` (configuration not stated), the TGI in [1], in assay [2], in [3], in assay [4], in assay [5] and in assay [6] was > 100 µM each time.

Consider `COC(=O)C1=C(C)N2CCCOC2(C)C(C(=O)OC)C1c1cccc(Cl)c1` (configuration not stated), for which the TGI in assay [7] was > 100 µM; in assay [2], 43.9 µM; in assay [3], 59.6 µM; in assay [4], > 100 µM; in [8], > 100 µM; in [5], 42.3 µM.

Regarding `CC(C)(C)C#C[P+](c1ccccc1)(c1ccccc1)c1ccccc1`, the TGI in assay [1] was 1.35 µM; in [7], 2.23 µM; in assay [2] it was 0.687 µM; in assay [3] it was 0.984 µM; in assay [4] it was 1.38 µM; in assay [8], 0.634 µM. The figures for the TGI in assay [9] and in [5] were 0.877 µM and 0.553 µM, respectively.

For the compound `COc1c(-c2cc(C)c(Cl)c(=O)[nH]2)c(O)c(OC)c2occc12`, the TGI in assay [7], in [2], in assay [3], in [4], in assay [10] and in assay [8] was > 100 µM each time. Moreover, the TGI in assay [9], in assay [5] and in assay [6] was > 100 µM in each case.

Consider `CC(=O)Nc1ccc2c(C(=O)O)c(C)c(=O)[nH]c2n1`, for which the TGI in [7], in [2], in [3], in [4], in assay [10] and in assay [8] was > 100 µM in each case. Also, the TGI in assay [9] and in assay [6] was > 100 µM throughout.

Take `Cc1cc(S(=O)(=O)Nc2nc3ccsc3c(=O)n2N)c(S)cc1Cl`: the TGI in assay [7] is > 100 µM; in [2], > 100 µM; in assay [3], 88 µM; in assay [4] it was > 100 µM; in assay [10] it was > 100 µM; in assay [8] it was > 100 µM. For the same compound, the TGI in assay [9] and in [5] was > 100 µM throughout.

`Cc1ccc(S(=O)(=O)NC(=O)NC(Cc2c[nH]c3ccccc23)C(=O)O)cc1` (configuration not stated): the TGI in assay [7], in assay [2], in [4], in [10], in assay [8] and in [9] was > 100 µM throughout. Besides, the TGI in assay [5] and in assay [6] was > 100 µM in each case.

Take `Cc1cn(C2CC(O)C(CO)C2C)c(=O)[nH]c1=O` (configuration not stated): the TGI in assay [7], in assay [2], in [3], in [4], in assay [9] and in [5] was > 100 µM in each case.

In the case of `C=Nc1ccc([N+](=O)[O-])cc1`, the TGI in assay [1], in assay [7], in assay [2], in assay [3], in assay [4] and in assay [8] was > 100 µM throughout. The TGI in assay [9] and in [5] was > 100 µM each time.

As to `Cc1ccccc1N=C(N)NC#N`, the TGI in [7], in assay [4], in assay [10], in [8], in assay [9] and in assay [5] was > 100 µM throughout.

With `Cc1nc2c(cc1C(=O)NN)c(=O)n(C)c(=O)n2C`, the TGI in assay [7], in assay [2], in [3], in [4], in assay [10] and in assay [8] was > 100 µM throughout. The TGI in [9], in assay [5] and in assay [6] was > 100 µM throughout.

For the compound `CCNC(=S)N/N=C/c1cc(OC)ccc1O`, the TGI in [7], in assay [2], in assay [3], in assay [4], in assay [10] and in [8] was > 100 µM throughout. In addition, the TGI in assay [9], in assay [5] and in [6] was > 100 µM throughout.

Regarding `CCOC(=O)C1=CN=C2C(=O)N(c3ccccc3)N(C)C2(C)C1=N` (configuration not stated), the TGI in assay [1], in [7], in assay [2], in [3], in assay [4] and in assay [10] was > 100 µM throughout. Besides, the TGI in assay [8], in [9] and in assay [5] was > 100 µM each time.

As to `C(=N\Nc1ncc(-c2cc3cc4c(cc3o2)OCO4)s1)/c1c[nH]c2ccccc12`, the GI50 in assay [2] was 0.449 µM; in assay [4], 1.77 µM; in [8] it was 1.66 µM; in [9] it was 0.374 µM; in [5] it was 1.4 µM; in assay [6] it was 2.09 µM. The TGI in [2] is 2.04 µM; in assay [4], 5.19 µM; in assay [8], 3.23 µM; in assay [9] it was 3.98 µM; in assay [5] it was 2.89 µM; in assay [6] it was > 100 µM.
